35 compounds from US8580842B2, “Heteroaryl-substituted 1,3-dihydroindol-2-one derivatives and medicaments containing them” (Abbott GmbH & Co. KG, priority 2003, dated 2013) can be followed below.

The test deals with T1, human V1b receptors (Homo sapiens, UniProt P47901).
T1 construct: expressed in transfected cells; host or cells: CHO-K1 (membrane preparation V1b-3H2)
T1 sequence (P47901 1-424): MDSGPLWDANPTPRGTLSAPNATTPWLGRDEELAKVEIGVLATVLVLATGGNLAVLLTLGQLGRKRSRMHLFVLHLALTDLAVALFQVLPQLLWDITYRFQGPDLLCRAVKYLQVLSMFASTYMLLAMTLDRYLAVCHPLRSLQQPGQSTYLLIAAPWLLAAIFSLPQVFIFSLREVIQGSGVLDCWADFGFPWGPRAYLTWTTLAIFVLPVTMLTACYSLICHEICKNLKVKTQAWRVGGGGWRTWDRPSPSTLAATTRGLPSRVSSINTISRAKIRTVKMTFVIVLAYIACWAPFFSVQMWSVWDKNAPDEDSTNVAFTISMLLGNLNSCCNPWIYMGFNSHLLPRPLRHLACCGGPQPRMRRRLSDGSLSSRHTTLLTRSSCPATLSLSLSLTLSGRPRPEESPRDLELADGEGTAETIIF
Kind of test: Vasopressin V1b receptor binding assay. Particulars: membranes from CHO-K1 cells expressing human V1b receptors, displacement of 1.5 nM 3H-AVP; read-out: Binding affinity for the vasopressin V1b receptor. The method, then:
Vasopressin V1b Receptor Binding Assay
The binding of the compounds of this invention to the vasopressin V1b receptor was determined with the following assay:
Compounds were dissolved in a concentration of 10^−2 M or 10^−3 M in DMSO. Further dilutions were performed with water.
The procedure for the binding assay was based on the method of Tahara et al. (Tahara A et al., Brit. J. Pharmacol. 125, 1463-1470 (1998)). Assays (0.250 ml) consisted of membranes (58 μg protein) from CHO-K1 cells permanently expressing human V1b receptors (preparation V1b-3H2, containing protease inhibitors, Roche complete Mini #1836170), 1.5 nM ^3H-AVP (8-Arg-vasopressin, NET 800) in incubation buffer (total binding) and different concentrations of test compound (displacement). Non-specific binding was defined with 10^−6 M AVP. Assays were performed in triplicate.
Incubation buffer: 50 mM Tris, 10 mM MgCl2, 0.1% BSA adjusted to pH 7.4 with HCl.
After incubation, 60 min at room temperature, bound and free radioligand was separated by filtration under vacuum through Whatman GF/B glass fibre mats using a Skatron cell harvester 7000.
Liquid scintillation counting was performed in beta-counters, Tricarb model 2000 or 2200CA (Packard). Dpm were calculated by a programme with standardisation using a standard quench series.
Evaluation of binding parameters was performed by non-linear regression analysis with SAS. The strategy of this program is similar to the program LIGAND described by Munson and Rodbard (Munson PJ and Rodbard D, Analytical Biochem 107, 220-239 (1980)).

Counter-ions that a name gives are not always drawn.

Consider `COc1ccc(S(=O)(=O)N2C(=O)C(c3cccnc3OC)(N3CC=C[C@H]3C(=O)N(C)C)c3cc(Cl)ccc32)c(OC)c1` (mixture of isomers) [Example 247, (S)-1-[5-Chloro-1-(2,4-dimethoxy-benzenesulfonyl)-3-(2-methoxy-pyridin-3-yl)-2-oxo-2,3-dihydro-1H-indol-3-yl]-2,5-dihydro-1H-pyrrole-2-carboxylic acid dimethylamide], for which the Ki was less than 50 nM. With `COC(=O)[C@@H]1CCCN1C1(c2cccnc2OC)C(=O)N(S(=O)(=O)c2ccc(OC)cc2OC)c2ccc(Cl)cc21` (mixture of isomers) [Example 248, (S)-1-[5-Chloro-1-(2,4-dimethoxy-benzenesulfonyl)-3-(2-methoxy-pyridin-3-yl)-2-oxo-2,3-dihydro-1H-indol-3-yl]-pyrrolidine-2-carboxylic acid methyl ester], the Ki was less than 50 nM. For `COc1ccc(S(=O)(=O)N2C(=O)C(c3nc4ccccc4s3)(N3C[C@H](O)C[C@H]3C(=O)N(C)C)c3cc(Cl)ccc32)c(OC)c1` (single isomer, unassigned) [Example 2] the value was less than 50 nM; for `COc1ccc(S(=O)(=O)N2C(=O)C(c3cnc(OC)nc3OC)(N3C[C@H](O)C[C@H]3C(=O)N(C)C)c3cc(Cl)ccc32)c(OC)c1` (single isomer, unassigned) [Example 3], less than 50 nM; for `COc1ccc(S(=O)(=O)N2C(=O)C(c3cccnc3OC)(N3C[C@H](O)C[C@H]3C(=O)N(C)C)c3cc(Cl)ccc32)c(OC)c1` (single isomer, unassigned) [Example 6], 50 to 500 nM. As to `COc1ccc(S(=O)(=O)N2C(=O)C(c3ncccc3OC)(N3C[C@H](O)C[C@H]3C(=O)N(C)C)c3cc(Cl)ccc32)c(OC)c1` (single isomer, unassigned) [Example 9], the Ki is less than 50 nM. For the compound `COc1ccc(S(=O)(=O)N2C(=O)C(c3cnccc3OC)(N3C[C@H](O)C[C@H]3C(=O)N(C)C)c3cc(Cl)ccc32)c(OC)c1` (single isomer, unassigned) [Example 10], the Ki was less than 50 nM.

On to `COc1ccc(S(=O)(=O)N2C(=O)C(c3nccnc3OC)(N3C[C@H](O)C[C@H]3C(=O)N(C)C)c3cc(Cl)ccc32)c(OC)c1` (single isomer, unassigned) [Example 13], for which the Ki is less than 50 nM. For `COc1ccccc1C1(N2C[C@H](O)C[C@H]2C(=O)N(C)C)C(=O)N(S(=O)(=O)c2cccc3cccnc23)c2ccc(Cl)cc21` (single isomer, unassigned) [Example 28] the value was less than 50 nM; for `COc1ccccc1C1(N2C[C@H](O)C[C@H]2C(=O)N(C)C)C(=O)N(S(=O)(=O)c2ccc(Cl)s2)c2ccc(Cl)cc21` (single isomer, unassigned) [Example 31], less than 50 nM. Regarding `COc1ccccc1C1(N2C[C@H](O)C[C@H]2C(=O)N(C)C)C(=O)N(S(=O)(=O)c2sc(Cl)cc2Br)c2ccc(Cl)cc21` (single isomer, unassigned) [Example 32], the Ki is 50 to 500 nM.

`COc1ccccc1C1(N2C[C@H](O)C[C@H]2C(=O)N(C)C)C(=O)N(S(=O)(=O)c2ccccn2)c2ccc(Cl)cc21` (single isomer, unassigned) [Example 47]: the Ki is less than 50 nM. `COc1ccccc1C1(N2C[C@H](O)C[C@H]2C(=O)N(C)C)C(=O)N(S(=O)(=O)c2ccc(Br)cn2)c2ccc(Cl)cc21` (single isomer, unassigned) [Example 48]: the Ki was less than 50 nM. On to `COc1ccccc1C1(N2C[C@H](O)C[C@H]2C(=O)N(C)C)C(=O)N(S(=O)(=O)c2ccc(C)cn2)c2ccc(Cl)cc21` (single isomer, unassigned) [Example 51], for which the Ki is less than 50 nM. As to `COc1ccccc1C1(N2C[C@H](O)C[C@H]2C(=O)N(C)C)C(=O)N(S(=O)(=O)c2ccc(Cl)cn2)c2ccc(Cl)cc21` (single isomer, unassigned) [Example 52], the Ki was less than 50 nM.

Turning to `COc1ccccc1C1(N2C[C@H](O)C[C@H]2C(=O)N(C)C)C(=O)N(S(=O)(=O)c2ncc(Br)cc2C)c2ccc(Cl)cc21` (single isomer, unassigned) [Example 53], the Ki is less than 50 nM. The value for `COc1ccccc1C1(N2C[C@H](O)C[C@H]2C(=O)N(C)C)C(=O)N(S(=O)(=O)c2ccc(N3CCOCC3)nc2)c2ccc(Cl)cc21` (single isomer, unassigned) [Example 56] was less than 50 nM. For `COc1ccc(S(=O)(=O)N2C(=O)C(N[C@@H](C)C(=O)N(C)C)(c3cccnc3OC)c3cc(Cl)ccc32)c(OC)c1` (single isomer, unassigned) [Example 221], the Ki is less than 50 nM. `COc1ccc(S(=O)(=O)N2C(=O)C(c3ncccc3C)(N3C[C@H](O)C[C@H]3C(=O)N(C)C)c3cc(Cl)ccc32)c(OC)c1` (single isomer, unassigned) [Example 222]: the Ki is less than 50 nM. As to `COc1ccc(S(=O)(=O)N2C(=O)C(c3cccnc3OC)(N3C[C@H](O)C[C@H]3C(=O)N(C)C)c3ccccc32)c(OC)c1` (single isomer, unassigned) [Example 225], the Ki lay in the range of 50 to 500 nM. For `COc1ccc(S(=O)(=O)N2C(=O)C(c3cccnc3OC)(N3CCC[C@H]3C(=O)N(C)C)c3ccccc32)c(OC)c1` (single isomer, unassigned) [Example 226] the value was 50 to 500 nM; for `COc1ccc(S(=O)(=O)N2C(=O)C(c3cccnc3OC)(N3CCC[C@H]3C(=O)N(C)C)c3cc(Cl)ccc32)c(OC)c1` (single isomer, unassigned) [Example 227], less than 50 nM.

For the compound `COc1ccc(S(=O)(=O)N2C(=O)C(c3cccnc3OC)(N3C[C@H](O)C[C@H]3C(=O)N(C)C)c3cc(OC)ccc32)c(OC)c1` (single isomer, unassigned) [Example 230, fumarate], the Ki was less than 50 nM.

For `COc1ccc(S(=O)(=O)N2C(=O)C(c3cccnc3OC)(N3C[C@H](O)C[C@H]3C(=O)N(C)C)c3cc(C#N)ccc32)c(OC)c1` (single isomer, unassigned) [Example 232], the Ki is less than 50 nM.

As for `COc1ccc(S(=O)(=O)N2C(=O)C(c3ccncc3OC)(N3C[C@H](O)C[C@H]3C(=O)N(C)C)c3cc(Cl)ccc32)c(OC)c1` (single isomer, unassigned) [Example 234], the Ki is less than 50 nM. For `COc1ccc(S(=O)(=O)N2C(=O)C(c3cnc(OC)nc3OC)(N3C[C@H](O)C[C@H]3C(=O)N(C)C)c3cc(Cl)ccc32)cc1` (single isomer, unassigned) [Example 236] the value was less than 50 nM. For `COc1ccc(S(=O)(=O)N2C(=O)C(c3cccnc3OC)(N3CCCC[C@H]3C(=O)N(C)C)c3cc(Cl)ccc32)c(OC)c1` (single isomer, unassigned) [Example 237], the Ki was less than 50 nM. The value for `COc1ccc(S(=O)(=O)N2C(=O)C(c3ccc(OC)nc3OC)(N3C[C@H](O)C[C@H]3C(=O)N(C)C)c3cc(Cl)ccc32)c(OC)c1` (single isomer, unassigned) [Example 238] was less than 50 nM; that for `CCOc1ncccc1C1(N2C[C@H](O)C[C@H]2C(=O)N(C)C)C(=O)N(S(=O)(=O)c2ccc(OC)cc2OC)c2ccc(Cl)cc21` (single isomer, unassigned) [Example 239] was less than 50 nM; that for `COc1ccc(S(=O)(=O)N2C(=O)C(c3cccnc3OC)(N3C[C@H](O)C[C@H]3C(=O)N(C)C)c3cc(Cl)ccc32)cc1` (single isomer, unassigned) [Example 240] was less than 50 nM. For `COc1ccccc1S(=O)(=O)N1C(=O)C(c2cccnc2OC)(N2C[C@H](O)C[C@H]2C(=O)N(C)C)c2cc(Cl)ccc21` (single isomer, unassigned) [Example 241], the Ki is 50 to 500 nM. Consider `COc1ccc(S(=O)(=O)N2C(=O)C(c3cccnc3OC)(N3C[C@H](O)C[C@H]3C(=O)N(C)C)c3cc(C#N)ccc32)cc1` (single isomer, unassigned) [Example 242], for which the Ki was less than 50 nM. `COc1ccc(S(=O)(=O)N2C(=O)C(c3nccnc3OC)(N3C[C@H](O)C[C@H]3C(=O)N(C)C)c3cc(I)ccc32)c(OC)c1` (single isomer, unassigned) [Example 243]: the Ki is less than 50 nM. The value for `COc1ccc(S(=O)(=O)N2C(=O)C(c3cccnc3OC)(N3C[C@H](O)C[C@H]3C(=O)N(C)C)c3cc(OC(F)(F)F)ccc32)c(OC)c1` (single isomer, unassigned) [Example 245] was less than 50 nM; that for `COc1ccc(S(=O)(=O)N2C(=O)C(c3cccnc3OC)(N3C[C@H](F)C[C@H]3C(=O)N(C)C)c3cc(Cl)ccc32)c(OC)c1` (single isomer, unassigned) [Example 246] was less than 50 nM.
